Results: ChEMBL document CHEMBL5537111, “Structure and function of SARS-CoV and SARS-CoV-2 main proteases and their inhibition: A comprehensive review” (Eur J Med Chem, 2023)
Where a SMILES comes first, the peptide text is derived from it. The star is where a group is joined. Boc = CC(C)(C)OC(=O)*; OtBu = CC(C)(C)O*; CH2Cl = ClC*

Key:
[1] = test system: SARS-CoV-2; test: Antiviral activity against SARS-CoV-2 Omicron BA.1 infected in human A549-hACE2-TMPRSS2 cells assessed as reduction in viral replication pre-incubated with compound followed by viral infection measured after 72 hrs by ELISA assay; assay type: functional, organism-based; details: Severe acute respiratory syndrome coronavirus 2, Omicron BA.1, A549-hACE2-TMPRSS2
[2] = biological target: T1, Replicase polyprotein 1ab (Severe acute respiratory syndrome coronavirus 2, UniProt P0DTD1)
[3] = test system: SARS-CoV-2; test: microbe, parasite or virus in culture; details: Severe acute respiratory syndrome coronavirus 2, Vero C1008
[4] = biological target: T1, Replicase polyprotein 1ab; remark: listed apart in the source
[5] = test system: SARS-CoV-2; assay type: functional, organism-based; details: Severe acute respiratory syndrome coronavirus 2, Huh-7
[6] = test system: SARS-CoV-2; assay type: functional, organism-based; details: Severe acute respiratory syndrome coronavirus 2, Huh-7, 72 h
[7] = test system: SARS-CoV-2; assay type: functional, organism-based; details: Severe acute respiratory syndrome coronavirus 2, A549-ACE2
[8] = biological target: T1, Replicase polyprotein 1ab; remark: listed apart in the source
[9] = test system: SARS-CoV-2; test: microbe, parasite or virus in culture; details: Severe acute respiratory syndrome coronavirus 2, Vero C1008; remark: listed apart in the source
[10] = test system: SARS-CoV-2; test: microbe, parasite or virus in culture; details: Severe acute respiratory syndrome coronavirus 2, Vero C1008, 72 h
[11] = biological target: Replicase polyprotein 1a (Severe acute respiratory syndrome-related coronavirus, UniProt P0C6U8)
[12] = test system: SARS-CoV; test: microbe, parasite or virus in culture; details: Severe acute respiratory syndrome-related coronavirus, Vero C1008, 72 h
[13] = biological target: T1, Replicase polyprotein 1ab; test: Binding affinity to His-tagged SARS-CoV-2 Main protease BetaCoV/Wuhan/WIV04/2019 expressed in Escherichia coli BL21 (DE3) assessed as inhibition constant by FRET assay
[14] = test system: SARS-CoV-2; assay type: functional, organism-based; details: Severe acute respiratory syndrome coronavirus 2, Vero C1008, 120 h
[15] = test system: SARS-CoV-2; assay type: functional, organism-based; details: Severe acute respiratory syndrome coronavirus 2, Calu-3
[16] = test system: SARS-CoV-2; assay type: functional, organism-based; details: Severe acute respiratory syndrome coronavirus 2, Vero
[17] = test system: SARS-CoV-2; assay type: functional, organism-based; details: Severe acute respiratory syndrome coronavirus 2, Calu-3, 48 h
[18] = test system: SARS-CoV-2; test: microbe, parasite or virus in culture; details: Severe acute respiratory syndrome coronavirus 2, B.1.1.7, Caco-2
[19] = biological target: T1, Replicase polyprotein 1ab; test: Binding affinity to SARS-CoV-2 MPro assessed as dissociation constant by FRET analysis
[20] = test system: A549; test: cells; details: Homo sapiens, A549, 72 h
[21] = test system: SARS-CoV-2; test: microbe, parasite or virus in culture; details: Severe acute respiratory syndrome coronavirus 2, Vero C1008, 72 h; remark: listed apart in the source

C=CC(=O)N(CCC(N)=O)NC(=O)[C@H](CC(C)C)NC(=O)[C@@H](NC(=O)OCc1ccccc1)[C@@H](C)OC(C)(C)C
EC50 [1]: 0.7 µM
IC50 [2]: 0.034 µM

O=C(NCc1ccc(O)c(F)c1)N1CCC(CN2CCc3ccccc32)CC1
EC50 [3]: 4.98 µM
IC50 [4]: 0.73 µM

CN(C)C(=O)COc1ccc(-c2cccc3[nH]ncc23)cc1C=O
EC50 [3]: 2.5 µM

CC(C)(C)NC(=O)N[C@H](C(=O)N1C[C@H]2[C@@H]([C@H]1C(=O)N[C@@H](C[C@@H]1CCNC1=O)C(=O)C(N)=O)C2(C)C)C(C)(C)C
EC50 [5]: 0.1 µM
EC50 [6]: 0.1 µM

C[C@@H](OC(C)(C)C)[C@H](NC(=O)OCc1ccccc1)C(=O)N[C@@H](CC1CCCCC1)C(=O)NN(CCC(N)=O)C(=O)C(Cl)Cl
EC50 [7]: 0.01 µM
IC50 [8]: 68 µM

CCOC(=O)c1cc(=O)oc2cc(O)c(O)cc12
IC50 [2]: 46 µM
EC50 [9]: 112 µM

CCCCC1CCC(COC(=O)N[C@@H](CC(C)C)C(=O)N[C@H](C=O)C[C@@H]2CCNC2=O)CC1 (stereo partly specified)
IC50 [2]: 0.17 µM
EC50 [10]: 0.15 µM
IC50 [11]: 0.9 µM

CNC(=O)c1ccc([C@H]2CCCCN2Cc2cccc(C(=O)N(C)C)c2)n1C
EC50 [3]: 8.52 µM
IC50 [4]: 0.69 µM

Cc1c(O)cccc1C(=O)N[C@@H](CSc1ccccc1)[C@H](O)CN1C[C@H]2CCCC[C@H]2C[C@H]1C(=O)NC(C)(C)C
EC50 [12]: 0.77 µM

C[C@H](NC(=O)[C@H](Cc1ccccc1)NC(=O)OCc1ccccc1)C(=O)[C@H]1CO1
Ki [13]: 2.2 µM
EC50 [14]: 12 µM

CC(C)(C)OC(=O)CC[C@H](NC(=O)CNC(=O)OC(C)(C)C)C(=O)CCl (Boc-Gly-Glu(OtBu)-CH2Cl)
EC50 [7]: 26 µM
EC50 [1]: 50.3 µM

COC(=O)N[C@H](C(=O)N[C@@H](Cc1ccccc1)[C@@H](O)CN(Cc1ccc(-c2ccccn2)cc1)NC(=O)[C@@H](NC(=O)OC)C(C)(C)C)C(C)(C)C [ATAZANAVIR]
EC50 [15]: 0.32 µM
EC50 [14]: 2 µM

COC(=O)[C@]12CCC(C)(C)C[C@H]1[C@H]1C(=O)C=C3[C@@]4(C)C=C(C#N)C(=O)C(C)(C)[C@@H]4CC[C@@]3(C)[C@]1(C)CC2 [BARDOXOLONE METHYL]
EC50 [16]: 0.29 µM
EC50 [17]: 0.2 µM
IC50 [2]: 5.81 µM

C=C(C)[C@@H]1CC[C@]2(C(=O)O)CC[C@]3(C)[C@H](CC[C@@H]4[C@@]5(C)CC[C@H](O)C(C)(C)[C@@H]5CC[C@]43C)[C@@H]12 [BETULINIC ACID]
IC50 [2]: 10 µM
EC50 [9]: > 10 µM

CC(C)(C)NC(=O)N[C@H](C(=O)N1C[C@H]2[C@@H]([C@H]1C(=O)NC(CC1CCC1)C(=O)C(N)=O)C2(C)C)C(C)(C)C (stereo partly specified) [BOCEPREVIR]
EC50 [3]: 15.6 µM
EC50 [18]: 2.97 µM
EC50 [10]: 15.6 µM
IC50 [11]: 6.63 µM

CC(C)c1nc(CN(C)C(=O)N[C@@H](CCN2CCOCC2)C(=O)N[C@H](CC[C@H](Cc2ccccc2)NC(=O)OCc2cncs2)Cc2ccccc2)cs1 [COBICISTAT]
EC50 [14]: 2.74 µM
IC50 [2]: 6.7 µM
Kd [19]: 2.2 µM

CC(=O)[C@@]1(O)CC[C@H]2[C@@H]3CCC4=CC(=O)CC[C@]4(C)[C@H]3CC[C@@]21C [HYDROXYPROGESTERONE]
IC50 [2]: 2.47 µM
EC50 [9]: 2.77 µM

Cc1ccc(NC(=O)c2ccc(CN3CCN(C)CC3)cc2)cc1Nc1nc(-c2cccnc2)cs1 [MASITINIB]
EC50 [20]: 3.2 µM

O=c1c(O)c(-c2cc(O)c(O)c(O)c2)oc2cc(O)cc(O)c12 [MYRICETIN]
EC50 [9]: 8 µM

CCOc1cc2ncc(C#N)c(Nc3ccc(F)c(Cl)c3)c2cc1NC(=O)/C=C/CN(C)C [PELITINIB]
EC50 [12]: 1.25 µM

CC1(C)CCC(CN2CCN(c3ccc(C(=O)NS(=O)(=O)c4ccc(NCC5CCOCC5)c([N+](=O)[O-])c4)c(Oc4cnc5[nH]ccc5c4)c3)CC2)=C(c2ccc(Cl)cc2)C1 [VENETOCLAX]
EC50 [21]: 1.18 µM
